Test: xn = mol fraction of the nth substance listed
Conditions: Liquid, Vibrating tube method

COc1cc2c(cc1O)CC1c3c(cc(O)c(OC)c3-2)CCN1C (stereo not given) [boldine] + CCCO
Conditions	mass density [kg/m3]
343.02 K, 16000 kPa, x1 = 0.0112	795.93
343.02 K, 17000 kPa, x1 = 0.0112	796.79
343.02 K, 18000 kPa, x1 = 0.0112	797.62
343.02 K, 19000 kPa, x1 = 0.0112	798.46
343.02 K, 20000 kPa, x1 = 0.0112	799.28
343.04 K, 1000 kPa, x1 = 0.0046	771.67
343.04 K, 2000 kPa, x1 = 0.0046	772.63
343.04 K, 3000 kPa, x1 = 0.0046	773.6
343.04 K, 4000 kPa, x1 = 0.0046	774.56
343.04 K, 5000 kPa, x1 = 0.0046	775.44
343.04 K, 6000 kPa, x1 = 0.0046	776.45
343.04 K, 7000 kPa, x1 = 0.0046	777.41
343.04 K, 8000 kPa, x1 = 0.0046	778.35
343.04 K, 9000 kPa, x1 = 0.0046	779.29
343.04 K, 10000 kPa, x1 = 0.0046	780.23
343.04 K, 11000 kPa, x1 = 0.0046	781.16
343.04 K, 12000 kPa, x1 = 0.0046	782.09
343.04 K, 13000 kPa, x1 = 0.0046	782.98
343.04 K, 14000 kPa, x1 = 0.0046	783.89
343.04 K, 15000 kPa, x1 = 0.0046	784.78
343.04 K, 16000 kPa, x1 = 0.0046	785.65
343.04 K, 17000 kPa, x1 = 0.0046	786.52
343.04 K, 18000 kPa, x1 = 0.0046	787.37
343.04 K, 19000 kPa, x1 = 0.0046	788.26
343.04 K, 20000 kPa, x1 = 0.0046	789.03
352.94 K, 1000 kPa, x1 = 0.0018	756.19
352.94 K, 1000 kPa, x1 = 0.0112	772.97
352.94 K, 1000 kPa, x1 = 0.0142	777.66
352.94 K, 2000 kPa, x1 = 0.0018	757.24
352.94 K, 2000 kPa, x1 = 0.0112	774.02
352.94 K, 2000 kPa, x1 = 0.0142	778.69
352.94 K, 3000 kPa, x1 = 0.0018	758.3
352.94 K, 3000 kPa, x1 = 0.0112	775.24
352.94 K, 3000 kPa, x1 = 0.0142	779.72
352.94 K, 4000 kPa, x1 = 0.0018	759.35
352.94 K, 4000 kPa, x1 = 0.0112	776.07
352.94 K, 4000 kPa, x1 = 0.0142	780.73
352.94 K, 5000 kPa, x1 = 0.0018	760.39
352.94 K, 5000 kPa, x1 = 0.0112	777.15
352.94 K, 5000 kPa, x1 = 0.0142	781.74
352.94 K, 6000 kPa, x1 = 0.0018	761.42
352.94 K, 6000 kPa, x1 = 0.0112	778.1
352.94 K, 6000 kPa, x1 = 0.0142	782.74
352.94 K, 7000 kPa, x1 = 0.0018	762.46
352.94 K, 7000 kPa, x1 = 0.0112	779.1
352.94 K, 7000 kPa, x1 = 0.0142	783.74
352.94 K, 8000 kPa, x1 = 0.0018	763.48
352.94 K, 8000 kPa, x1 = 0.0112	780.11
352.94 K, 8000 kPa, x1 = 0.0142	784.73
352.94 K, 9000 kPa, x1 = 0.0018	764.5
352.94 K, 9000 kPa, x1 = 0.0112	781.09
352.94 K, 9000 kPa, x1 = 0.0142	785.73
352.94 K, 10000 kPa, x1 = 0.0018	765.51
352.94 K, 10000 kPa, x1 = 0.0112	782.07
352.94 K, 10000 kPa, x1 = 0.0142	786.7
352.94 K, 11000 kPa, x1 = 0.0018	766.51
352.94 K, 11000 kPa, x1 = 0.0112	783.04
352.94 K, 11000 kPa, x1 = 0.0142	787.66
352.94 K, 12000 kPa, x1 = 0.0018	767.49
352.94 K, 12000 kPa, x1 = 0.0112	784.02
352.94 K, 12000 kPa, x1 = 0.0142	788.61
352.94 K, 13000 kPa, x1 = 0.0018	768.45
352.94 K, 13000 kPa, x1 = 0.0112	784.98
352.94 K, 13000 kPa, x1 = 0.0142	789.57
352.94 K, 14000 kPa, x1 = 0.0018	769.42
352.94 K, 14000 kPa, x1 = 0.0112	785.8
352.94 K, 14000 kPa, x1 = 0.0142	790.48
352.94 K, 15000 kPa, x1 = 0.0018	770.37
352.94 K, 15000 kPa, x1 = 0.0112	786.85
352.94 K, 15000 kPa, x1 = 0.0142	791.41
352.94 K, 16000 kPa, x1 = 0.0018	771.31
352.94 K, 16000 kPa, x1 = 0.0112	787.79
352.94 K, 16000 kPa, x1 = 0.0142	792.32
352.94 K, 17000 kPa, x1 = 0.0018	772.22
352.94 K, 17000 kPa, x1 = 0.0112	788.61
